Source: US20150087627A1, “COMBINATION OF KINASE INHIBITORS AND USES THEREOF” (Intellikine LLC, priority 2011, published 2015)
Where two headings read alike, the source gives them in different places.

How the values were obtained:
Format in all cases: biochemical
PI3K β (p110β/p85α) = target: T1, PI3K β (p110β/p85α) (Homo sapiens, UniProt P42338); assay: PI 3-Kinase (human) HTRF assay, PI3K β; conditions: read-out: PI3K β IC50
T1 construct: purchased Upstate / Millipore Corporation

PI3K δ = target: T2, PI3K δ (Homo sapiens, UniProt O00329); assay: PI 3-Kinase (human) HTRF assay, PI3K δ; conditions: read-out: PI3K δ IC50
T2 construct: purchased Upstate / Millipore Corporation

PI3K α (p110α/p85α) = target: T3, PI3K α (p110α/p85α) (Homo sapiens, UniProt P42336); assay: PI 3-Kinase (human) HTRF assay, PI3K α; conditions: read-out: PI3K α IC50
T3 construct: purchased Upstate / Millipore Corporation
Experimental: Briefly, the assay is a time resolved FRET assay that indirectly measures PIP3 product formed by the activity of a PI3-K. The kinase reaction is performed in a microtiter plate (e.g., a 384 well microtiter plate). The total reaction volume is approximately 20 ul per well. In the first step, each well receives 2 ul of test compound in 20% dimethylsulphoxide resulting in a 2% DMSO final concentration. […] The plate is sealed and incubated for 15 minutes at room temperature. […] The plate is sealed and incubated for 1 hour at room temperature. The reaction is stopped by adding 5 ul of Stop Solution per well and then 5 ul of Detection Mix is added per well. The plate is sealed, incubated for 1 hour at room temperature, and then read on an appropriate plate reader. Data is analyzed and IC50s are generated using GraphPad Prism 5.

PI3K γ (p110γ) = target: T4, PI3K γ (p110γ) (Homo sapiens, UniProt P48736); assay: PI 3-Kinase (human) HTRF assay, PI3K γ; conditions: Table 4 (PI3K α inhibitors); read-out: PI3K γ IC50
T4 construct: purchased Upstate / Millipore Corporation
T4 sequence (P48736 whole entry): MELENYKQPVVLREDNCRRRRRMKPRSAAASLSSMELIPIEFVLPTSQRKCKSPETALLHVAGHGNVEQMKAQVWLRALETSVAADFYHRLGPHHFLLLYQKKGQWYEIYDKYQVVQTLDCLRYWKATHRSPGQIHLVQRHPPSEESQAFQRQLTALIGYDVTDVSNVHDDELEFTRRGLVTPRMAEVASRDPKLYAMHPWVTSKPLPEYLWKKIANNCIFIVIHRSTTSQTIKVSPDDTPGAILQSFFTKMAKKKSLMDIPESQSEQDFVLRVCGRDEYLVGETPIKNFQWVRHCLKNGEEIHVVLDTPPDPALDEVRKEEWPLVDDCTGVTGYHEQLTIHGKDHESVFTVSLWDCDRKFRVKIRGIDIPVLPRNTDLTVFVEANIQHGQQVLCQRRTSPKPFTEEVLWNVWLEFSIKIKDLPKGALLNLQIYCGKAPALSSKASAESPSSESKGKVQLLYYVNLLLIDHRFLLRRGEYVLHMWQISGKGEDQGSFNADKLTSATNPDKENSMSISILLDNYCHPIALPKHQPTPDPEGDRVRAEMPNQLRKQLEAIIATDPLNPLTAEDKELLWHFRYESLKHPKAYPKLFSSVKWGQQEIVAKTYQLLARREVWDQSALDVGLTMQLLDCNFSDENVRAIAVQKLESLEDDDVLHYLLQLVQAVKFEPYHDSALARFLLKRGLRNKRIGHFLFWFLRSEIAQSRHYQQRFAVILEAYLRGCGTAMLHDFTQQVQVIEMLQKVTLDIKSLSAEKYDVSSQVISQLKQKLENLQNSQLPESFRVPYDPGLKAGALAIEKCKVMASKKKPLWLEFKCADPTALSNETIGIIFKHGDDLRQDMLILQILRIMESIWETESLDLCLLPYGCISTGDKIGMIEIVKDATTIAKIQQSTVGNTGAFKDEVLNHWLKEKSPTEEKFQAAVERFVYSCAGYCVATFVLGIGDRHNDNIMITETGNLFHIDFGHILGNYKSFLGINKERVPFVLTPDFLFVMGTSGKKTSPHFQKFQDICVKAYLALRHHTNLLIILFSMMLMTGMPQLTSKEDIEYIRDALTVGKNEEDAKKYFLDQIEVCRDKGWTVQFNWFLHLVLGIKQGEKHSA

T1 sequence (P42338 whole entry): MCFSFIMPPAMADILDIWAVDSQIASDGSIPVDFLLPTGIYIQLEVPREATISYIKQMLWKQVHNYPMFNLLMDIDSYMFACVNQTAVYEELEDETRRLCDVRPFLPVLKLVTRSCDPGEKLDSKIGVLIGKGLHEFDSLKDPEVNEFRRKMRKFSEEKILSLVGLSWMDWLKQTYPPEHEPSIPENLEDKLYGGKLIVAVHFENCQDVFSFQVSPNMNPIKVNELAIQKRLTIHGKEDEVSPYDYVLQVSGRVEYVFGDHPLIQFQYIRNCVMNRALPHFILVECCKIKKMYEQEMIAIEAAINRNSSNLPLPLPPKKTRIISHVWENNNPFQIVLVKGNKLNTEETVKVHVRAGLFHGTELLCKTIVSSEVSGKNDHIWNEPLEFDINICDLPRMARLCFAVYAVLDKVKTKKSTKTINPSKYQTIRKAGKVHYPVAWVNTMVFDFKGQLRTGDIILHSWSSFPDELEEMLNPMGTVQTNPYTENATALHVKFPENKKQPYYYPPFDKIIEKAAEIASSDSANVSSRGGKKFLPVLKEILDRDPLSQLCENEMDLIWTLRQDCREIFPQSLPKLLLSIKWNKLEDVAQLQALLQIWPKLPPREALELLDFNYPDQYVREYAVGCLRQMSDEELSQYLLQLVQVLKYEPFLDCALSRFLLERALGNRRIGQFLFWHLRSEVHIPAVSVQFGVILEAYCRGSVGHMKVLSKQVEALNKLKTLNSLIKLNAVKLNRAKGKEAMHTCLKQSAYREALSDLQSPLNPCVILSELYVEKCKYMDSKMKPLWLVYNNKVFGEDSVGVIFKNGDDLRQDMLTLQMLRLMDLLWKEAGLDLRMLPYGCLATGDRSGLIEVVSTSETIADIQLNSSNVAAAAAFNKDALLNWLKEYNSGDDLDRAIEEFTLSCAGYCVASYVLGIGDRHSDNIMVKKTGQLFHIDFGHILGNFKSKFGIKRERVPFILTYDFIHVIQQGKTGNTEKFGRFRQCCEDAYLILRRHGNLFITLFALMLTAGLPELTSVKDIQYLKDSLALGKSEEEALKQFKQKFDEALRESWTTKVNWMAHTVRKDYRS
T1 sequence (P27986 whole entry partner): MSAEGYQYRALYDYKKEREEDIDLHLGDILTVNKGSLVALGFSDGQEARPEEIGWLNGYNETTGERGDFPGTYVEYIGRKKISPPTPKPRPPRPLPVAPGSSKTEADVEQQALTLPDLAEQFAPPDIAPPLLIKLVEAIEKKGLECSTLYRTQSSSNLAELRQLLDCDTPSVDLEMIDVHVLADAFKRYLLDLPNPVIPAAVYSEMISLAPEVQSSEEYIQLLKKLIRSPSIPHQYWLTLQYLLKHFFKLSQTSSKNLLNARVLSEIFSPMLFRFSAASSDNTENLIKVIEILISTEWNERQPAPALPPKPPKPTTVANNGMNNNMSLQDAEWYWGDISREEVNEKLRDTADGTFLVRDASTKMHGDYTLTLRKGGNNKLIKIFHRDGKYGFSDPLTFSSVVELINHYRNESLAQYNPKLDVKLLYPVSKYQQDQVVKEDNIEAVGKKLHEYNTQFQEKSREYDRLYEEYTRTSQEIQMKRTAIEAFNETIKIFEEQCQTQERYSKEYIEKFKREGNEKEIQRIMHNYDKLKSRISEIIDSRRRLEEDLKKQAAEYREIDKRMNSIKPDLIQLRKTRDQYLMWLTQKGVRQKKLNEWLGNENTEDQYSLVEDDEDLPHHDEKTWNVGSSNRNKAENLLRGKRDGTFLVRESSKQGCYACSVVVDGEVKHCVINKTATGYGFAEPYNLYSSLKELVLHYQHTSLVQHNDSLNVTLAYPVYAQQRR
T3 sequence (P42336 whole entry): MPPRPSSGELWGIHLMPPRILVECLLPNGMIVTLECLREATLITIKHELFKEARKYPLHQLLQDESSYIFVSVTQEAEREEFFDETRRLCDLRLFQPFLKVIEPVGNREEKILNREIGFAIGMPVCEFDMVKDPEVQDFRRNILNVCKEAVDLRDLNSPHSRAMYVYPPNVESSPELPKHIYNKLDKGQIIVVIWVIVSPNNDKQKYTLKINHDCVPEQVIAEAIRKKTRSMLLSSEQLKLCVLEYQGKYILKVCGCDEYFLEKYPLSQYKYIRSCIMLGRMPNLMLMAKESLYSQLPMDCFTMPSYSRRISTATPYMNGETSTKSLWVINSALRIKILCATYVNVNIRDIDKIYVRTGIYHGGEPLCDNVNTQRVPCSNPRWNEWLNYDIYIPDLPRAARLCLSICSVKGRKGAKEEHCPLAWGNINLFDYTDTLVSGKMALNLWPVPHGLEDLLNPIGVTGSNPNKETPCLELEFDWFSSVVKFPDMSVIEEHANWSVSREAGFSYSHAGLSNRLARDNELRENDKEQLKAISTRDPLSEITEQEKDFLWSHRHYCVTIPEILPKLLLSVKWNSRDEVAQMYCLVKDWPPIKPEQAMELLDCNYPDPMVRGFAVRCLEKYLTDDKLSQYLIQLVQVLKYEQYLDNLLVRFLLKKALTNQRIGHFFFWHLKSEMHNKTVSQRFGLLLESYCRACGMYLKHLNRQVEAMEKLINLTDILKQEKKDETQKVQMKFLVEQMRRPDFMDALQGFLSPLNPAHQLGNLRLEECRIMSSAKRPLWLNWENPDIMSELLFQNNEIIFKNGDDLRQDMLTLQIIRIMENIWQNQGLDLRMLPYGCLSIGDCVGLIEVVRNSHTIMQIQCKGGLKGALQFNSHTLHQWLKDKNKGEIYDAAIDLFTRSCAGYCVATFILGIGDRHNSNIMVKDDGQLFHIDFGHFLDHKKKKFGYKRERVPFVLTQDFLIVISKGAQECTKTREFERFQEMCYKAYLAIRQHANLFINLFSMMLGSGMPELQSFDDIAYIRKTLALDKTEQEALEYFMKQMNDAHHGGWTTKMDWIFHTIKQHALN
T3 sequence (P27986 whole entry partner): as the sequence (P27986 whole entry partner) above
T2 sequence (O00329 whole entry): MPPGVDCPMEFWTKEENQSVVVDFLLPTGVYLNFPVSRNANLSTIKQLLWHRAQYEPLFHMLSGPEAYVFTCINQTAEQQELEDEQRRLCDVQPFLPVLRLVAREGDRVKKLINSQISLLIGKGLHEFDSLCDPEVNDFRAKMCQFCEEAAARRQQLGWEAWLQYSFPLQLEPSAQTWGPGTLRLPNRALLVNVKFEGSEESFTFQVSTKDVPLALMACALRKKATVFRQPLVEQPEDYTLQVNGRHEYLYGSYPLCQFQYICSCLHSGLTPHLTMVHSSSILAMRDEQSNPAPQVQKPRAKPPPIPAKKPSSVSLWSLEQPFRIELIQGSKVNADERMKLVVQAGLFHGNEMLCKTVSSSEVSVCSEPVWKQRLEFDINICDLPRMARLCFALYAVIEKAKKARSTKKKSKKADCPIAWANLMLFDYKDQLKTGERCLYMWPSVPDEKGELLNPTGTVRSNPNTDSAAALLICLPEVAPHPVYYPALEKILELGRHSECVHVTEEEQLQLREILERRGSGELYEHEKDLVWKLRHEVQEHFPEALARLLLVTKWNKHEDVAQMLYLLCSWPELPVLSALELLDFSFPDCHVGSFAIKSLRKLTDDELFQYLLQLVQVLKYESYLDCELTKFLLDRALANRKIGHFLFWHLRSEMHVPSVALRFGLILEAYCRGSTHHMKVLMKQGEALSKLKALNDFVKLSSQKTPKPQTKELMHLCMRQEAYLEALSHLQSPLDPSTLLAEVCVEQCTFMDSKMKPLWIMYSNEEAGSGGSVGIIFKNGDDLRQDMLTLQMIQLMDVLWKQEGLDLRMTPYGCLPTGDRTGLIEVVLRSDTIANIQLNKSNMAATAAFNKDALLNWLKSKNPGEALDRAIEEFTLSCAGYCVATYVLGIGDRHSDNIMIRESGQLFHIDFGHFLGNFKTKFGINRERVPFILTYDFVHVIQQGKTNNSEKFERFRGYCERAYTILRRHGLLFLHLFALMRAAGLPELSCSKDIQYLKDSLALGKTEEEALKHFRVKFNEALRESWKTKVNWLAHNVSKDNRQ
T2 sequence (P27986 whole entry partner): as the sequence (P27986 whole entry partner) above

Row | Structure (SMILES) | IC50 (PI3K β (p110β/p85α)) [µM] | IC50 (PI3K δ) [µM] | IC50 (PI3K α (p110α/p85α)) [µM] | IC50 (PI3K β (p110β/p85α); Table 4 (PI3K α inhibitors)) [µM] | IC50 (PI3K δ; Table 4 (PI3K α inhibitors)) [µM] | IC50 (PI3K α (p110α/p85α); Table 4 (PI3K α inhibitors)) [µM] | IC50 (PI3K γ (p110γ)) [µM]
1 | COc1ccc(-c2ccc3ncc(C(=O)N4CCOCC4)n3c2)cc1S(=O)(=O)Nc1ccccc1 [Compound 444] | > 10 | > 10 | < 10 | – | – | – | –
2 | O=C(c1cnc2ccc(-c3cncc(S(=O)(=O)Nc4ccccc4)c3)cn12)N1CCOCC1 [Compound 447] | > 10 | > 10 | < 10 | – | – | – | –
3 | O=C(c1cnc2ccc(-c3cnc(Cl)c(NS(=O)(=O)c4ccccc4)c3)cn12)N1CCOCC1 [Compound 451] | < 1 | < 0.1 | < 0.1 | – | – | – | –
4 | O=C(c1cnc2ccc(-c3cnc(Cl)c(NS(=O)(=O)c4ccccc4F)c3)cn12)N1CCOCC1 [Compound 452] | < 1 | < 0.1 | < 0.1 | – | – | – | –
5 | COc1ccc(-c2ccc3ncc(C(=O)N4CCOCC4)n3c2)cc1NS(=O)(=O)c1ccccc1 [Compound 455] | > 10 | > 10 | < 10 | – | – | – | –
6 | O=C(c1cnc2ccc(-c3ccc(Cl)c(NS(=O)(=O)c4ccccc4)c3)cn12)N1CCOCC1 [Compound 459] | > 10 | > 10 | < 1 | – | – | – | –
7 | CN(C(=O)c1cnc2ccc(-c3ccc4oc(N)nc4c3)cn12)C1CCOCC1 [Compound 472] | < 10 | < 10 | < 0.1 | – | – | – | –
8 | Nc1nc2cc(-c3ccc4ncc(C(=O)N5CC[C@@H](F)C5)n4c3)ccc2o1 [Compound 475] | > 10 | < 10 | < 0.1 | – | – | – | –
9 | Nc1nc2cc(-c3ccc4ncc(C(=O)N5CC[C@@H](n6cccn6)C5)n4c3)ccc2o1 [Compound 477] | > 10 | < 10 | < 0.1 | – | – | – | –
10 | Nc1nc2cc(-c3ccc4ncc(C(=O)N5CC[C@H](n6cccn6)C5)n4c3)ccc2o1 [Compound 478] | < 10 | < 1 | < 0.1 | – | – | – | –
11 | C[C@@H]1CCCN1C(=O)c1cnc2ccc(-c3ccc4oc(N)nc4c3)cn12 [Compound 481] | < 10 | < 10 | < 0.1 | – | – | – | –
12 | Nc1n[nH]c2cc(-c3ccc4ncc(C(=O)N5CCOCC5)n4c3)ccc12 [Compound 487] | > 10 | > 10 | > 10 | – | – | – | –
13 | Nc1n[nH]c2c(-c3ccc4ncc(C(=O)N5CCOCC5)n4c3)cccc12 [Compound 490] | > 10 | > 10 | > 10 | – | – | – | –
14 | Nc1nc2c(-c3ccc4ncc(C(=O)N5CCOCC5)n4c3)cccc2o1 [Compound 496] | < 10 | > 10 | < 1 | – | – | – | –
15 | C[C@@H]1CN(C2CN(C(=O)c3cnc4ccc(-c5ccc6oc(N)nc6c5)cn34)C2)CCN1 [Compound 511] | < 10 | < 1 | < 0.1 | – | – | – | –
16 | C[C@H]1CN(C2CN(C(=O)c3cnc4ccc(-c5ccc6oc(N)nc6c5)cn34)C2)CCN1C [Compound 512] | < 10 | < 1 | < 0.1 | – | – | – | –
17 | CC1(C)COCCN1C(=O)c1cnc2ccc(-c3ccc4oc(N)nc4c3)cn12 [Compound 514] | > 10 | > 10 | < 1 | – | – | – | –
18 | CC(C)N1CCC(n2cnc3ccc(-c4cnc(Cl)c(NS(=O)(=O)c5ccccc5)c4)cc3c2=O)CC1 [Compound 521] | < 0.1 | < 0.1 | < 0.1 | – | – | – | –
19 | Nc1nc2cc(-c3cnc4ccc(C(=O)N5CCOCC5)cn34)ccc2o1 [Compound 541] | > 10 | > 10 | > 10 | – | – | – | –
20 | Nc1nc2cc(-c3ccc4ncc(N5CCOCC5)nc4n3)ccc2o1 [Compound 553] | – | – | – | < 1 | > 10 | < 0.1 | –
21 | CCOC(=O)N1CCN(c2cnc3ccc(-c4ccc5oc(N)nc5c4)nc3n2)CC1 [Compound 557] | – | – | – | < 1 | < 1 | < 0.1 | –
22 | CCOC(=O)N1CC=C(c2cnc3ccc(-c4ccc5oc(N)nc5c4)nc3n2)CC1 [Compound 560] | – | – | – | – | – | < 0.1 | < 0.1
23 | C[C@@H]1COCCN1c1cnc2ccc(-c3ccc4oc(N)nc4c3)nc2n1 [Compound 565] | – | – | – | – | – | < 0.1 | < 0.1
24 | Nc1nc2cc(-c3ccc4ncc(N5CC6CCC(C5)O6)cc4n3)ccc2o1 [Compound 579] | – | – | – | – | – | – | < 1
25 | C[C@@H](N)C(=O)N1CCN(c2cnc3ccc(-c4ccc5oc(N)nc5c4)nc3n2)CC1 [Compound 582] | – | – | – | – | – | < 0.1 | < 1
26 | Nc1nc2cc(-c3ccc4ncc(N5CCC(O)CC5)cc4n3)ccc2o1 [Compound 613] | – | – | – | – | – | < 0.1 | < 1
27 | C[C@H]1COCCN1C1CN(c2cnc3ccc(-c4ccc5oc(N)nc5c4)nc3c2)C1 [Compound 619] | – | – | – | > 10 | > 10 | < 0.1 | –
28 | Nc1nc2cc(-c3ccc4ncc(N5CC(N6CCN(C7CC7)CC6)C5)cc4n3)ccc2o1 [Compound 621] | – | – | – | – | – | < 0.1 | < 1
29 | CN1CCN(c2ccc3ncc(-c4ccc5oc(N)nc5c4)cc3n2)CC1 [Compound 631] | – | – | – | – | > 10 | – | > 10
